Measured values: patent publication US11299760B2 (Amgen Inc., priority 2013, dated 2022)

How the values were obtained:
Type in all cases: cell-based, Chinese hamster
Cells producing MAb C = experiment: mock perfusion assay, glycan analysis
Experimental: Mock perfusion assay is a small scale, plate-based assay that is designed to mimic perfusion conditions in bioreactors through daily medium exchanges. For a 10-day mock perfusion assay, passaging cultures of various production cell lines were diluted 1:5 into chemically defined base perfusion medium in a 24 deep-well plate at a final volume of 3 ml per well. Mock perfusion was initiated on day 3 when the cells were spun down at 1000 rpm for 5 minutes and 25% of each spent culture medium was exchanged with the equivalent volume of fresh perfusion media. Subsequent medium exchange percentages were 40% on days 4-8 and 50% on day 9. Exchanged supernatants were stored at 4° C. prior to analysis.
Analysis of cell culture parameters was also started on day 3; viable cell density and viability were analyzed using the ViaCount Guava assay as previously described. Glucose was measured daily starting on day 3 and was maintained at 12 g/l. Stored supernatants were analyzed for antibody titer as described previously. Samples of supernatant fluid from days 6, 8 and 10 were also analyzed for the presence and type of glycans by HILIC analysis.
Equivalent volumes of methanol were added daily to control cultures (columns 1 and 2 of the 24-well plate). This scheme is depicted below:
Total high mannose values (Total HM column) and the corresponding distributions into high mannose species from Man5 through Man9 were determined for purified antibody samples collected on day 10. Each value shown in Table 4 represents an average of duplicates.

MAb A producing cells = experiment: GM130 immunofluorescence microscopy of Golgi; conditions: day 10 mock perfusion cultures; monensin-treated vs control
Experimental: (§1) On day 10, cell pellets were washed once with cold PBS and fixed in 4% paraformaldehyde for 10 minutes on ice. Cells were then washed once in again in cold PBS and stored at 4° C. until they were immunofluorescently stained as described below
(§2) Monensin is known to cause gross changes in Golgi architecture characterized by swollen and fragmented cisternae. The structure of the Golgi of CHO production cell lines after monensin treatment was analyzed using a panel of five different commercially available antibodies against various Golgi proteins with a passaging culture of recombinant cells producing MAb A using immunofluorescence microscopy.
(§3) Next, day 10 control and monensin-treated mock perfusion cultures of MAb A producing cells and MAb C producing cells were subjected to immunofluorescence microscopy using GM130 antibody. Paraformaldehyde fixed cell pellets were permeablized with 0.1% TritonX-100 made in PBS. Pellets were washed with PBSA (0.5% BSA in PBS) and incubated with GM130 antibody (BD Biosciences, San Jose, Calif.) diluted 1:50 in PBSA. Cells were washed thrice with PBSA and incubated with Alexa 488 conjugated mouse secondary antibody (Invitrogen, Grand Island, N.Y.) diluted 1:1000 in PBSA. […] Images were captured using Zeiss 510 microscope (Carl Zeiss, Inc., Jena, Germany) with 63× water immersion lens and analyzed using LSM image browser software.

MAb C producing cells = experiment: GM130 immunofluorescence microscopy of Golgi; conditions: day 10; increasing monensin culminating at 100 nM from days 7-10
Experimental: as §1, §2, §3

[1] = constant monensin 25 nM, day 10
[2] = increasing monensin (to 100 nM), day 10

CC[C@@]1([C@@H]2O[C@@H]([C@H]3O[C@@](O)(CO)[C@H](C)C[C@@H]3C)C[C@@H]2C)CC[C@H]([C@]2(C)CC[C@]3(C[C@H](O)[C@@H](C)[C@@H]([C@@H](C)[C@@H](OC)[C@H](C)C(=O)O)O3)O2)O1 [monensin]
Total HM (Cells producing MAb C; constant monensin 25 nM from day 3, Day 6): 49.6% | Total HM (Cells producing MAb C; constant monensin 25 nM from day 3, Day 8): 31.1% | Total HM (Cells producing MAb C; constant monensin 25 nM from day 3, Day 10): 30.9% | Man6 (Cells producing MAb C; [1]): 5.3% | Man7 (Cells producing MAb C; [1]): 3.6% | Man8a (Cells producing MAb C; [1]): 0.7% | Man8b (Cells producing MAb C; [1]): 1.4% | Man9 (Cells producing MAb C; [1]): 0.3% | Total HM (Cells producing MAb C; increasing monensin (25 nM day 4, 50 nM days 5-6, 100 nM days 7-9), Day 6): 56.6% | Total HM (Cells producing MAb C; increasing monensin (25 nM day 4, 50 nM days 5-6, 100 nM days 7-9), Day 8): 67.6% | Total HM (Cells producing MAb C; increasing monensin (25 nM day 4, 50 nM days 5-6, 100 nM days 7-9), Day 10): 65.8% | Man5 (Cells producing MAb C; [2]): 31.6% | Man6 (Cells producing MAb C; [2]): 13.7% | Man7 (Cells producing MAb C; [2]): 12.3% | Man8a (Cells producing MAb C; [2]): 1.0% | Man8b (Cells producing MAb C; [2]): 5.9% | Man9 (Cells producing MAb C; [2]): 1.3% | Golgi morphology (GM130 staining) (MAb A producing cells): No morphological difference | Golgi morphology (GM130 staining) (MAb C producing cells): punctate distribution of GM130 protein
